# According to the supplement of paper PMC3493320:
# pIC50: −log10 of the molar value.
# Test system: NCI-H295R
# Test: IC50 (antiproliferative, ATP content)
# Conditions: 48 h
# Procedure, shortened: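 Cell viability of adrenocortical carcinoma cells was assessed as ATP by CellTiter-Glo luminescence. Cells at 1500 per well in 1536-well plates, in serum-free DMEM with ITS, received compounds by pin transfer at 8 final concentrations (0.6 nM–46 µM) after overnight culture and were then held 48 h at 37 °C, 5% CO2. IC50 was calculated by logistic fitting against vehicle and positive-control wells, compounds with no concentration response being recorded as above the top dose.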
row,pIC50,Structure (SMILES)
1,< 4.34,Nc1ccc(S(=O)(=O)NC(=O)c2ccccc2)cc1
2,< 4.34,NS(=O)(=O)c1cc(C2(O)NC(=O)c3ccccc32)ccc1Cl (centres undefined)
3,< 4.34,COc1ccccc1N1CCN(CCCNc2cc(=O)n(C)c(=O)n2C)CC1.Cl
4,< 4.34,Cl.N=C(N)NC(=O)Cc1c(Cl)cccc1Cl
5,< 4.34,COc1ccc(-c2cc(=S)ss2)cc1
6,< 4.34,Nc1c(CC(=O)[O-])cccc1C(=O)c1ccc(Br)cc1.Nc1c(CC(=O)[O-])cccc1C(=O)c1ccc(Br)cc1.O.O.O.[Na+].[Na+]
7,< 4.34,C[C@H]1O[C@H](O[C@H]2[C@H](O)[C@@H](O)[C@@H](O[C@H]3[C@H](O)[C@@H](O)[C@H](O)O[C@@H]3CO)O[C@@H]2CO)[C@H](O)[C@@H](O)[C@@H]1N[C@H]1C=C(CO)[C@@H](O)[C@H](O)[C@H]1O
8,< 4.34,C[N+](C)(C)CCCCCC[N+](C)(C)C
9,< 4.34,N#C/C(=C1\SCC(c2ccccc2Cl)S1)n1ccnc1 (centres undefined)
10,< 4.34,FC(F)(F)C(F)(F)C(F)(F)C(F)(F)C(F)(F)F
11,< 4.34,CC1(C)CO[C@@H](CC(=O)O)CN1
12,< 4.34,C/C1=C2N=C(/C=C3N=C(/C(C)=C4\[N]([Co+][CH2][C@H]5O[C@@H](n6cnc7c(N)ncnc76)[C@H](O)[C@@H]5O)C(C(CC(N)=O)C4(C)CCC(=O)NCC(C)OP(=O)([O-])O[C@H]4[C@@H](O)[C@@H](n5cnc6cc(C)c(C)cc65)O[C@@H]4CO)C4(C)N=C1C(CCC(N)=O)C4(C)CC(N)=O)C(CCC(N)=O)C\3(C)C)C(CCC(N)=O)C/2(C)CC(N)=O (some centres undefined)
13,< 4.34,O.O.O.O.O=C1[O][Mg]2([O]C(=O)c3ccccc3[O]2)[O]c2ccccc21
14,< 4.34,O=C(C2)N([C@]([H])1[C@@]([O-])=O)[C@]2([H])O\C1=C/CO.[Li+]
15,< 4.34,O=C([O-])CN(CCN(CC(=O)[O-])CC(=O)[O-])CC(=O)[O-].[Fe+3].[Na+]
16,< 4.34,O=C(O)c1ccc(NC2OC[C@@H](O)[C@H](O)[C@H]2O)cc1 (some centres undefined)
17,< 4.34,CCCCCCCCCCOc1cc2c(O)c(C(=O)OCC)cnc2cc1OCC
18,< 4.34,CN(C)CCN(Cc1cccs1)c1ccccn1.Cl
19,< 4.34,O=C(/C=C/c1cccc(F)c1)NC1CC1
20,< 4.34,Nc1nc(N)c(-c2ccccc2)s1
21,< 4.34,CCCN(CCc1cccs1)[C@H]1CCc2c(O)cccc2C1
22,< 4.34,Nc1nc(=O)c2ncn(CCC(CO)CO)c2[nH]1
23,< 4.34,O=C1CCc2cc(OCCCCc3nnnn3C3CCCCC3)ccc2N1
24,< 4.34,c1ccc2ccccc2c1

row,pIC50,Structure (SMILES)
1,< 4.34,NC(=O)NO
2,< 4.34,CN1CCC[C@@H]1c1cccnc1
3,< 4.34,CCCCC[C@H](O)/C=C/[C@H]1[C@H](O)CC(=O)[C@@H]1C/C=C\CCCC(=O)O
4,< 4.34,CC(=O)Oc1cccc(O)c1
5,< 4.34,CCCCCCCCCCCCCCCCCC(=O)OCC(O)CO (centres undefined)
6,< 4.34,CC(C)(C)NC[C@H](O)COc1nsnc1N1CCOCC1
7,< 4.34,CC(O)CN(CCN(CC(C)O)CC(C)O)CC(C)O (centres undefined)
8,< 4.34,CC(C)n1c(/C=C/[C@@H](O)C[C@@H](O)CC(=O)[O-])c(-c2ccc(F)cc2)c2ccccc21.[Na+]
9,< 4.34,CC(C)N1CCN(c2ccc(OC[C@H]3COC(Cn4cncn4)(c4ccc(Cl)cc4Cl)O3)cc2)CC1 (some centres undefined)
10,< 4.34,C[C@H]1O[C@H](OC[C@@H]2O[C@H](Oc3c(-c4ccc(OCCO)c(OCCO)c4)oc4cc(OCCO)cc(O)c4c3=O)[C@@H](O)[C@H](O)[C@H]2O)[C@@H](O)[C@@H](O)[C@@H]1O
11,< 4.34,O=C(O)c1cc(-c2ccccc2)nc2ccccc12
12,< 4.34,NC[C@H]1O[C@H](O[C@H]2[C@H](O)[C@@H](O[C@H]3O[C@H](CO)[C@@H](O)[C@H](N)[C@H]3O)[C@H](N)C[C@@H]2N)[C@H](N)C[C@@H]1O
13,< 4.34,CO/N=C(\C(=O)N[C@@H]1C(=O)N2C(C(=O)O)=C(CSC(=O)c3ccco3)CS[C@H]12)c1csc(N)n1
14,< 4.34,NC[C@@H]1CC[C@@H](N)[C@@H](O[C@H]2[C@H](O)[C@@H](O[C@H]3O[C@H](CO)[C@@H](O)[C@H](N)[C@H]3O)[C@H](N)C[C@@H]2N)O1
15,< 4.34,Cl.NCCNC(=O)c1ccc(Cl)cn1
16,< 4.34,C=CC1=C(C(=O)O)N2C(=O)[C@@H](NC(=O)C(=NOCC(=O)O)c3csc(N)n3)[C@H]2SC1
17,< 4.34,O=C(O)CN(CC(=O)O)Cc1cc2c(cc1O)Oc1ccc(CN(CC(=O)O)CC(=O)O)c(O)c1C21OC(=O)c2ccccc21 (centres undefined)
18,< 4.34,CCCCCCCCCCCCCCC[C@H](O)[C@H](N)CO
19,< 4.34,Oc1ccc(/C=C/c2cc(O)cc(O)c2)cc1
20,< 4.34,O=C(O)Cc1sc(-c2ccccc2)nc1-c1ccc(Cl)cc1
21,< 4.34,CC(C(=O)O)c1ccc2c(c1)[nH]c1ccc(Cl)cc12 (centres undefined)
22,< 4.34,CN(CCOc1ccc(CC2SC(=O)NC2=O)cc1)c1ccccn1 (centres undefined)
23,< 4.34,N[C@H](C(=O)O)c1ccc(O)cc1

row,Structure (SMILES),pIC50
1,OC(O)C(Cl)(Cl)Cl,< 4.34
2,COc1ccc2c3c1O[C@H]1C(=O)CC[C@H]4[C@@H](C2)N(C)CC[C@]314.COc1ccc2c3c1O[C@H]1C(=O)CC[C@H]4[C@@H](C2)N(C)CC[C@]314.O=P(O)(O)O.O=P(O)(O)O.O=P(O)(O)O,< 4.34
3,C[N+]1([O-])[C@@H]2CC[C@H]1C[C@@H](OC(=O)C(CO)c1ccccc1)C2.Cl (some centres undefined),< 4.34
4,CN1C(=O)CN=C(c2ccccc2)c2cc([N+](=O)[O-])ccc21,< 4.34
5,C[C@]41/C=C\C(=O)\C=C4\C(=C)C[C@H]2[C@@H]3CCC(=O)[C@@]3(C)CC[C@H]12,< 4.34
6,O=[N+]([O-])O[C@@H]1CO[C@H]2[C@@H]1OC[C@@H]2O,< 4.34
7,O=[C@](OCC2=C(F)C(F)=CC(F)=C2F)[C@H]1C(C)(C)[C@@H]1/C=C(Cl)/Cl,< 4.34
8,CCC1(C2=NCCN2)Cc2ccccc2O1 (centres undefined),< 4.34
9,O=[N+]([O-])c1ccccc1,< 4.34
10,CO[C@]12C[C@@H](COC(=O)c3cncc(Br)c3)CN(C)[C@@H]1Cc1cn(C)c3cccc2c13,< 4.34
11,O=S(=O)(O)O.[2H]C([2H])([2H])[C@H](N)Cc1ccccc1.[2H]C([2H])([2H])[C@H](N)Cc1ccccc1,< 4.34
12,Cl.NNc1ccccc1,< 4.34
13,OC1=CC(\C=C(C#N)/C#N)=CC(O)=C1O,< 4.34
14,O=c1ccc2cc(O[C@@H]3O[C@H](CO)[C@@H](O)[C@H](O)[C@H]3O)c(O)cc2o1,< 4.34
15,CS(=O)(=O)O.N[C@@H]1[C@H]2CN(c3nc4c(cc3F)c(=O)c(C(=O)O)cn4-c3ccc(F)cc3F)C[C@@H]12,< 4.34
16,O[C@H]([C@@]1=CC=CC=C1)[C@H](C)N(C)C,< 4.34
17,COC(C)(C)CCCC(C)C/C=C/C(C)=C/C(=O)OC(C)C (centres undefined),< 4.34
18,C[N+]1(C)CCCC(OC(=O)C(O)(c2ccccc2)c2ccccc2)C1.[Br-] (centres undefined),< 4.34
19,O=[C@](N[C@@H](C)CO)[C@@H](C4)C=C(C2=C1C(C3)=CNC1=CC=C2)[C@]3([H])N4C,< 4.34
20,Nc1ccncc1,< 4.34
21,O=S(=O)(O)O.Oc1ccc(C(O)CNCCCCCCNCC(O)c2ccc(O)c(O)c2)cc1O (centres undefined),< 4.34
22,NC(=O)CN1CCCC1=O,< 4.34
